Measured values from ChEMBL document CHEMBL1131608, “Structure-activity relationships and molecular modeling of 3, 5-diacyl-2,4-dialkylpyridine derivatives as selective A3 adenosine receptor antagonists” (J Med Chem, 1998).

Columns and labels:
[1] = molecular target: Adenosine receptor A2a (Rattus norvegicus) (UniProt P30543); assay: Binding affinity towards adenosine A2A receptor by measuring its ability to displace [3H]-CGS- 21680 in rat striatal membranes at a concentration of 10e-4 M; assay type: cell membranes; conditions: Striatum, Membrane
Adenosine receptor A2a (Rattus norvegicus), sequence (P30543 whole entry): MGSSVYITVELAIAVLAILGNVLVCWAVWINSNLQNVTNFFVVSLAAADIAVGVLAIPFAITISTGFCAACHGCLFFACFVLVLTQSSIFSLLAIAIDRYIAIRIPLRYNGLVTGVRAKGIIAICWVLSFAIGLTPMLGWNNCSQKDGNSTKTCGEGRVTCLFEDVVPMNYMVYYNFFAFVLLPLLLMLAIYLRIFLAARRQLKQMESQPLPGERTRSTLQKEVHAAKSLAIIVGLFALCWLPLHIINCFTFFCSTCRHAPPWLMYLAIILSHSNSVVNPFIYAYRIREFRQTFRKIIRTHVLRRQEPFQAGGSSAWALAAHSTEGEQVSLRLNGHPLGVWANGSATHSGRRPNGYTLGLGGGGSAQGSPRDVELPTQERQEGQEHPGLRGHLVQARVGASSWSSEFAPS

[2] = molecular target: T1, Adenosine receptor A3 (Homo sapiens) (UniProt P0DMS8); assay: Binding affinity towards adenosine A3 receptor by measuring its ability to displace [125I]AB-MECA binding to membranes prepared from HEK293 cells; assay type: cell membranes
T1 sequence (whole entry): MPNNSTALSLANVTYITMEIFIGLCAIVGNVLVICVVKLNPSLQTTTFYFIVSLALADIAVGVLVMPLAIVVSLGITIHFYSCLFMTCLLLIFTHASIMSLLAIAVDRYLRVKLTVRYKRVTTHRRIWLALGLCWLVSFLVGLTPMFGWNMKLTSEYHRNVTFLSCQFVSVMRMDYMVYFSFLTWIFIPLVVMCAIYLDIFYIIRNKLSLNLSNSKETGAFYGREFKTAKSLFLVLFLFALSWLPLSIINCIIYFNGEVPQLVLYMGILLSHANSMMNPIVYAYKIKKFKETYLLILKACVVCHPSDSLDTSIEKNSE

[3] = molecular target: T2, Adenosine receptor A1 (Rattus norvegicus) (UniProt P25099); assay: Binding affinity towards adenosine A1 receptor by measuring its ability to displace [3H]-R-PIA in rat brain membranes at a concentration of 10e-4 M; assay type: cell membranes
T2 sequence (whole entry): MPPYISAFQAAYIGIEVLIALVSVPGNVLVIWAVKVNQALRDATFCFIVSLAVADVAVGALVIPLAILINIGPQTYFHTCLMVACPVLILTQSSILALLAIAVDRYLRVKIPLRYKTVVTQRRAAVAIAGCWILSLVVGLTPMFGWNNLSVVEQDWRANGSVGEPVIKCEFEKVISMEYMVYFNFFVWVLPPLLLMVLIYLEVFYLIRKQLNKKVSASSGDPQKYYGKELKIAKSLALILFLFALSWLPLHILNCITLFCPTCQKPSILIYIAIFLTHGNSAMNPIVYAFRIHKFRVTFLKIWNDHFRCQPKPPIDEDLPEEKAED

[4] = system: HEK293; assay: Selectivity for binding affinity towards A1 adenosine receptor in rat brain membrane and human A3 receptor expressed in HEK cells; assay type: cell-based
[5] = molecular target: Adenosine receptor A2a (Rattus norvegicus) (UniProt P30543); assay: Binding affinity for adenosine A2A receptor as displacement of [3H]-CGS- 21680 from rat striatal membranes at 10e-4 M; assay type: cell membranes; conditions: Membrane
[6] = molecular target: T3, Adenosine receptor A1 (Rattus norvegicus, UniProt P25099); assay: Binding affinity for adenosine A1 receptor as displacement of [3H]R-PIA from rat brain membranes at 10e-4 M; assay type: cell membranes, Membrane
T3 sequence (P25099 whole entry): T2 sequence (whole entry)

[7] = molecular target: T4, Adenosine receptor A2a (Rattus norvegicus, UniProt P30543); assay: Binding affinity for adenosine A2A receptor as displacement of [3H]-CGS- 21680 from rat striatal membranes; assay type: cell membranes, Membrane
T4 sequence (P30543 whole entry): as the sequence (P30543 whole entry) above

[8] = molecular target: T1, Adenosine receptor A3 (Homo sapiens); assay: Binding affinity for adenosine A3 receptor as displacement of [125I]AB-MECA from HEK293 cell membranes at 10e-4 M
[9] = molecular target: T3, Adenosine receptor A1; assay: Binding affinity for adenosine A1 receptor as displacement of [3H]R-PIA from rat brain membranes; assay type: cell membranes, Membrane
[10] = molecular target: T4, Adenosine receptor A2a

inhibition [1] [%] | Ki [2] [nM] | inhibition [3] [%] | SMILES | Ratio [4] | other results
8.91 | 13.4 | 8.2 | CCOC(=O)c1c(-c2cccc(Cl)c2)nc(CC)c(C(=O)SCC)c1CC | 610 | 
7.09 | 1280 | 4.25 | CCOC(=O)c1c(-c2ccccc2)nc(CC)c(C(=O)O)c1CC | 3.3 | 
 |  | 22 | CCOC(=O)C1=C(C)NC(C2CC2)=C(C(=O)OCc2ccccc2)C1C#Cc1ccccc1 (centres undefined) |  | inhibition [5]: 10%
6.13 | 20 | 41 | CCOC(=O)c1c(-c2ccccc2)nc(CC)c(C(=O)SCC)c1CC | > 3000 | 
2.88 | 783 | 1.95 | CCOC(=O)c1c(C)nc(-c2ccccc2)c(C(=O)OCC)c1C(OC)OC | 2.5 | 
24.5 | 215 | 5.05 | CCCOC(=O)c1c(C)nc(-c2ccccc2)c(C(=O)OCC)c1C | 23 | 
12.8 | 2610 | 20 | CCSC(=O)c1c(C)nc(-c2ccccc2)c(C(=O)Oc2ccccc2)c1CC | > 40 | 
< 10 | 35 | 40.3 | CCCCc1nc(-c2ccccc2)c(C(=O)OCC)c(CC)c1C(=O)SCC | 1200 | 
32 | 15600 | 26 | CCOC(=O)C1=C(c2ccccc2)N=C(C)/C(=C(/O)OCC)C1C=O (centres undefined) | 6 | 
2.82 | 33.3 | 16.7 | CCCc1nc(-c2ccccc2)c(C(=O)OCC)c(CC)c1C(=O)SCC | 500 | 
10 | 188 | 17.4 | CCSC(=O)c1c(CC)nc(-c2ccccc2)c(C(=O)OCCO)c1CC | 93 | 
 |  |  | CCOC(=O)C1=C(C)NC(C2CCCC2)=C(C(=O)OCc2ccccc2)C1C#Cc1ccccc1 (centres undefined) | 340 | 
 |  |  | CNC(=O)[C@H]1O[C@@H](n2cnc3c(NCc4ccc(N)c(I)c4)ncnc32)[C@H](O)[C@@H]1O |  | Ki [6]: 3.4 nM
26.1 | 3380 | 55.3 | CCOC(=O)c1c(C2CCCC2)nc(CC)c(C(=O)SCC)c1CC | 16 | 
4.77 |  |  | CCOC(=O)C1=C(c2ccccc2)N=C(C)/C(=C(/O)OCC)C1/C=C/c1ccccc1 (centres undefined) |  | 
29.1 | 907 | 34 | CCOC(=O)C1=C(c2ccccc2)N=C(CC)/C(=C(/O)SCC)C1CC (centres undefined) | > 50 | 
 |  |  | CCOC(=O)c1c(C)nc(-c2ccccc2)c(C(=O)OCc2ccccc2)c1C#Cc1ccccc1 | 4.2 | Ki [7]: 43000 nM; inhibition [8]: 2.75%
3.69 | 176 | 3.36 | CCOC(=O)c1c(C)nc(-c2ccccc2)c(C(=O)OCC)c1CC | 19 | 
 |  | < 10 | CCOC(=O)c1c(C)nc(C2CCC2)c(C(=O)OCc2ccccc2)c1C#Cc1ccccc1 |  | 
 |  | 20 | CCOC(=O)C1=C(c2ccccc2)N=C(CC)/C(=C(/O)OCC)C1C (centres undefined) |  | inhibition [5]: < 10%
7.53 | 194 | 29 | CCCc1c(C(=O)SCC)c(C)nc(-c2ccccc2)c1C(=O)OCC | > 700 | 
24.1 | 7.94 | 41.4 | CCCOC(=O)c1c(-c2cccc(Cl)c2)nc(CC)c(C(=O)SCCC)c1CC | 5200 | 
 | 1650 | 45 | CCS/C(O)=C1\C(C)=NC(c2ccccc2)=C(C(=O)OCc2ccccc2)C1CC (centres undefined) | > 50 | inhibition [5]: 14.3%

inhibition [1] [%] | Ki [2] [nM] | inhibition [3] [%] | SMILES | Ratio [4] | other results
< 10 | 2090 | 26 | CCCC1=NC(c2ccccc2)=C(C(=O)OCC)C(CC)/C1=C(\O)SCC (centres undefined) | > 20 | 
 |  |  | CCCO/C(O)=C1\C(C)=NC(c2ccccc2)=C(C(=O)OCC)C1C (centres undefined) |  | Ki [7]: 28900 nM; Ki [9]: 17400 nM
2.56 | 1980 | 9.56 | CCOC(=O)c1c(C)nc(-c2ccccc2)c(C(=O)OCC)c1C=O | 4.8 | 
 |  |  | CCOC(=O)C1=C(c2ccccc2)N=C(C)/C(=C(/O)OCC)C1CC (centres undefined) |  | Ki [7]: 21800 nM
7.98 | 165 | 36 | CCOC(=O)c1c(-c2ccccc2)nc(C)c(C(=O)SCCOC)c1CC | > 500 | 
12.6 | 16.8 | 10.1 | CCOC(=O)c1c(-c2ccccc2)nc(CCOC)c(C(=O)SCC)c1CC | 600 | 
 |  | 22 | CCOC(=O)C1=C(C)NC(C2CCCCC2)=C(C(=O)OCc2ccccc2)C1C#Cc1ccccc1 (centres undefined) |  | inhibition [5]: 20%
15.7 | 15.9 | 8.22 | CCCSC(=O)c1c(CC)nc(-c2ccccc2)c(C(=O)OCC)c1CC | 520 | 
< 10 |  |  | CCO/C(O)=C1\C(C)=NC(c2ccccc2)=C(C(=O)OCc2ccccc2)C1C#Cc1ccccc1 (centres undefined) |  | 
28.4 |  |  | CCOC(=O)c1c(C)nc(-c2ccccc2)c(C(=O)OCC)c1C |  | 
54.8 |  | 35.4 | CCOC(=O)C1=C(c2ccccc2)N=C(C)/C(=C(/O)SCC)C1CC (centres undefined) |  | 
22 | 145 | 30 | CCOC(=O)c1c(-c2ccccc2)nc(C2CCC2)c(C(=O)SCC)c1CC | > 500 | 
 |  |  | CCO/C(O)=C1\C(C)=NC(c2ccccc2)=C(C(=O)OCc2ccc([N+](=O)[O-])cc2)C1C#Cc1ccccc1 (centres undefined) |  | Ki [6]: > 100000 nM; Ki [10]: > 100000 nM
 |  | 36 | CCOC(=O)C1=C(C)NC(C2CCC2)=C(C(=O)OCc2ccccc2)C1C#Cc1ccccc1 (centres undefined) |  | inhibition [5]: 10%
 | 4580 | 36 | CCOC(=O)C1=C(c2ccccc2)N=C(C)/C(=C(/O)SCCOC)C1CC (centres undefined) | > 10 | inhibition [5]: 12.5%
13.4 | 121 | 10.3 | CCOC(=O)c1c(CC)nc(-c2ccccc2)c(C(=O)OCC)c1C | 85 | 
< 10 | 15300 | 32 | CCOC(=O)C1=C(c2ccccc2)N=C(C)/C(=C(/O)OCC)C1C(OC)OC (centres undefined) | > 5 | 
< 10 | 8.29 | 7.77 | CCCOC(=O)c1c(-c2ccccc2)nc(CC)c(C(=O)SCC)c1CC | 940 | 
2.05 | 18.9 | 15.6 | CCCOC(=O)c1c(-c2ccccc2)nc(CC)c(C(=O)SCC)c1CCC | 830 | 
14.9 | 143 | 14.8 | CCOC(=O)c1c(-c2ccccc2)nc(C)c(C(=O)SCC)c1CC | 340 | 
 |  |  | CCOC(=O)c1c(C)nc(C2CCCC2)c(C(=O)OCc2ccccc2)c1C#Cc1ccccc1 | 15 | 
 |  | 48 | CCCC1C(C(=O)OCC)=C(c2ccccc2)N=C(C)/C1=C(/O)SCC (centres undefined) |  | inhibition [5]: 29%
